Data as given in US20090170178A1, “Cell stimulating device and cell stimulating method” (priority 2003, published 2009).

How the values were obtained:
Type in all cases: cell-based, mouse
[1] = system: GABAA receptor β2 subunit mRNA in cultured granule cells; settings: stimulation at 1.0 and 100 Hz; FIG. 9C; MK801 25 μM, CNQX 10 μM
[2] = system: NMDA receptor NR2C subunit mRNA in cultured granule cells
[3] = system: cultured granule cells (release of NRG); assay: Release of NRG into conditioned medium, read by CREB phosphorylation in granule cells; settings: living cultured granule cells
Method: In the case of FIG. 6D, CREB phosphorylation following stimulation of each conditioned medium was confirmed using cerebellar granule cells. Serum-starved cerebellar granule cells were treated (for 5 to 10 minutes) with conditioned media that had been recovered from the culture products of pontine nuclei neurons and granule cells. The conditioned medium recovered from pontine nuclei neurons was used for stimulation in the cases of a, b, and c. In the cases of d, e, and f, a conditioned medium was prepared from the culture product of granule cells.
Stimulated granule cells were immobilized, followed by staining with a phospho-CREB antibody. The soluble forms that had been released after PMA stimulation (60 minutes) were concentrated and added to cultured granule cells. In panels c and f, the conditioned media should contain endogenous NRG and recombinant NRG. The difference between panels b and e indicates a function of NRG cleaved from recombinant mNRG. FIGS. 6E and 6F show the results of identification of an amino acid sequence that is necessary for proteolysis with the use of an ErbB and CREB phosphorylation assay system. The […] sequence was located above extracellular portions of transmembrane domains that were aligned in parallel. When the sequence was subjected to deletion or mutation of lysine to glycine, proteolysis efficiency was inhibited as shown in FIG. 6F. […]

| Compound | β2 transcription [1] | Increase of NR2C transcription/expression [2] | NR2C transcription / expression of NR2C mRNA ([2]; level increased at 1 and 100 Hz, FIG. 9C, MK801 25 μM) | Obvious release of NRG [3] |
| --- | --- | --- | --- | --- |
| C[C@]12N[C@H](Cc3ccccc31)c1ccccc12 [MK801] | blocked | blocked NR2C elevation in a particularly strong manner | strongly blocked |  |
| N#Cc1cc2[nH]c(=O)c(=O)[nH]c2cc1[N+](=O)[O-] [CNQX] | blocked |  |  |  |
| [Cl-].[K+] [KC1] |  |  |  | not observed |
